Measured values from US8648081B2 (Eli Lilly and Company, priority 2011, dated 2014).

tested on: Lone star tick larvae (Amblyomma americanum); assay: In Vitro Larval Immersion Microassay (LIM); settings: read-out: % Efficacy (percent larval mortality)
Method: In Vitro Larval Immersion Microassay (LIM)
The larval immersion microassay may be conducted as described in White, et al., J. Med. Entomol. […] Briefly, experimental test articles are formulated in dimethylsulfoxide (DMSO) to prepare a stock solution at a concentration of 10 mM. […] Approximately 30-50 Lone star tick larvae (Amblyomma americanum) are submerged into each well containing experimental test articles. After a 30 minute immersion period, larvae are removed with a wide-bore pipette tip in 0.05 ml of fluid, dispensed into a commercial paper tissue biopsy bag which is sealed at the top with a plastic dialysis clip, inverted and allowed to air dry for 60 minutes. Bags containing larvae are then incubated at approximately 27 degrees Celsius and >90% relative humidity. After 24 hours, bags are opened, live and dead larvae are counted and percent larval mortality is calculated as follows: % Efficacy=(# dead larvae)/(# total larvae)×100.

| SMILES | mortality at 300 µM [%] |
| --- | --- |
| O=C(N[C@@H]1CCNC1=O)c1sc(C2=NOC(c3cc(Cl)cc(Cl)c3)(C(F)(F)F)C2)c2c1CCCC2 (stereo partly drawn) [Example 32, 3-(5-(3,5-dichlorophenyl)-5-(trifluoromethyl)-4,5-dihydroisoxazol-3-yl)-N—((R)-2-oxopyrrolidin-3-yl)-4,5,6,7-tetrahydrobenzo[c]thiophene-1-carboxamide] | ≥ 80 |
| O=C(CNC(=O)c1sc(C2=NOC(c3cc(Cl)cc(Cl)c3)(C(F)(F)F)C2)c2c1CCC2)NCC(F)(F)F (stereo not drawn) [Example 36, 3-(5-(3,5-dichloro-phenyl)-5-(trifluoro-methyl)-4,5-dihydro-isoxazol-3-yl)-N-(2-oxo-2-(2,2,2-trifluoroethylamino)ethyl)-5,6-dihydro-4H-cyclopenta[c] thiophene-1-carboxamide] | ≥ 80 |
| O=C(NC1CS(=O)(=O)C1)c1sc(C2=NOC(c3cc(Cl)cc(Cl)c3)(C(F)(F)F)C2)c2c1CCCC2 (stereo not drawn) [Example 37, 3-[5-(3,5-Dichloro-phenyl)-5-trifluoro-methyl-4,5-dihydro-isoxazol-3-yl]-4,5,6,7-tetrahydro-benzo[c] thiophene-1-carboxylic acid (1,1-dioxo-thietan-3-yl)-amide] | ≥ 80 |
| O=C1CCCC(NC(=O)c2sc(C3=NOC(c4cc(Cl)cc(Cl)c4)(C(F)(F)F)C3)c3c2CCCC3)C1 (stereo not drawn) [Example 38, 3-(5-(3,5-dichloro-phenyl)-5-(trifluoro-methyl)-4,5-dihydro-isoxazol-3-yl)-N-(3-oxocyclohexyl)-4,5,6,7-tetrahydrobenzo [c]thiophene-1-carboxamide] | ≥ 80 |
| O=C(NC1CCS(=O)(=O)CC1)c1sc(C2=NOC(c3cc(Cl)cc(Cl)c3)(C(F)(F)F)C2)c2c1CCCC2 (stereo not drawn) [Example 39, 3-[5-(3,5-Dichloro-phenyl)-5-trifluoro-methyl-4,5-dihydro-isoxazol-3-yl]-4,5,6,7-tetrahydro-benzo [c]thiophene-1-carboxylic acid (1,1-dioxo-hexahydro-116-thiopyran-4-yl)-amide] | ≥ 80 |
| O=C(NC1CCN(CC(F)(F)F)C1=O)c1sc(C2=NOC(c3cc(Cl)cc(Cl)c3)(C(F)(F)F)C2)c2c1CCCC2 (stereo not drawn) [Example 40, 3-[5-(3,5-Dichloro-phenyl)-5-trifluoro-methyl-4,5-dihydro-isoxazol-3-yl]-4,5,6,7-tetrahydro-benzo[c] thiophene-1-carboxylic acid [2-oxo-1-(2,2,2-trifluoro-ethyl)-pyrrolidin-3-yl]-amide] | ≥ 80 |
| O=C(N[C@@H]1CCNC1=O)c1sc(C2=NOC(c3cc(Cl)cc(Cl)c3)(C(F)(F)F)C2)c2c1CCC2 (stereo partly drawn) [Example 41, 3-(5-(3,5-dichloro-phenyl)-5-(trifluoro-methyl)-4,5-dihydro-isoxazol-3-yl)-N-((R)-2-oxopyrrolidin-3-yl)-5,6-dihydro-4H-cyclopenta[c] thiophene-1-carboxamide] | ≥ 80 |
| N#CCNC(=O)CNC(=O)c1sc(C2=NOC(c3cc(Cl)cc(Cl)c3)(C(F)(F)F)C2)c2c1CCC2 (stereo not drawn) [Example 42, N-(2-(cyanomethyl-amino)-2-oxoethyl)-3-(5-(3,5-dichlorophenyl)-5-(trifluoromethyl)-4,5-dihydroisoxazol-3-yl)-5,6-dihydro-4H-cyclopenta[c]thiophene-1-carboxamide] | ≥ 80 |
| C#CCNC(=O)CNC(=O)c1sc(C2=NOC(c3cc(Cl)cc(Cl)c3)(C(F)(F)F)C2)c2c1CCC2 (stereo not drawn) [Example 43, 3-(5-(3,5-dichloro-phenyl)-5-(trifluoro-methyl)-4,5-dihydro-isoxazol-3-yl)-N-(2-oxo-2-(prop-2-ynylamino)ethyl)-5,6-dihydro-4H-cyclopenta[c] thiophene-1-carboxamide] | ≥ 80 |
| O=C(CNC(=O)c1sc(C2=NOC(c3cc(Cl)c(Cl)c(Cl)c3)(C(F)(F)F)C2)c2c1CCCC2)NCC(F)(F)F (stereo not drawn) [Example 44, N-(2-oxo-2-(2,2,2-trifluoroethylamino)ethyl)-3-(5-(3,4,5-trichlorophenyl)-5-(trifluoromethyl)-4,5-dihydroisoxazol-3-yl)-4,5,6,7-tetrahydrobenzo [c]thiophene-1-carboxamide] | ≥ 80 |
| O=C(N[C@@H]1CCNC1=O)c1sc(C2=NOC(c3cc(Cl)c(Cl)c(Cl)c3)(C(F)(F)F)C2)c2c1CCCC2 (stereo partly drawn) [Example 45, N-((R)-2-oxopyrrolidin-3-yl)-3-(5-(3,4,5-trichlorophenyl)-5-(trifluoromethyl)-4,5-dihydroisoxazol-3-yl)-4,5,6,7-tetrahydrobenzo [c]thiophene-1-carboxamide] | ≥ 80 |
| N#CCNC(=O)CNC(=O)c1sc(C2=NOC(c3cc(Cl)c(Cl)c(Cl)c3)(C(F)(F)F)C2)c2c1CCCC2 (stereo not drawn) [Example 46, N-(2-(cyanomethyl-amino)-2-oxoethyl)-3-(5-(3,4,5-trichloro-phenyl)-5-(trifluoro-methyl)-4,5-dihydro-isoxazol-3-yl)-4,5,6,7-tetrahydrobenzo [c]thiophene-1-carboxamide] | ≥ 80 |
| C#CCNC(=O)CNC(=O)c1sc(C2=NOC(c3cc(Cl)c(Cl)c(Cl)c3)(C(F)(F)F)C2)c2c1CCCC2 (stereo not drawn) [Example 47, N-(2-oxo-2-(prop-2-ynylamino)ethyl)-3-(5-(3,4,5-trichlorophenyl)-5-(trifluoromethyl)-4,5-dihydroisoxazol-3-yl)-4,5,6,7-tetrahydro-benzo[c]thiophene-1-carboxamide] | ≥ 80 |
| O=C(CNC(=O)c1sc(C2=NOC(c3cc(Cl)c(F)c(Cl)c3)(C(F)(F)F)C2)c2c1CCCC2)NCC(F)(F)F (stereo not drawn) [Example 48, 3-(5-(3,5-dichloro-4-fluorophenyl)-5-(trifluoromethyl)-4,5-dihydroisoxazol-3-yl)-N-(2-oxo-2-(2,2,2-trifluoroethyl-amino)ethyl)-4,5,6,7-tetrahydrobenzo [c]thiophene-1-carboxamide] | ≥ 80 |
| O=C(N[C@@H]1CCNC1=O)c1sc(C2=NOC(c3cc(Cl)c(F)c(Cl)c3)(C(F)(F)F)C2)c2c1CCCC2 (stereo partly drawn) [Example 49, 3-(5-(3,5-dichloro-4-fluorophenyl)-5-(trifluoromethyl)-4,5-dihydroisoxazol-3-yl)-N-((R)-2-oxopyrrolidin-3-yl)-4,5,6,7-tetrahydro-benzo[c]thiophene-1-carboxamide] | ≥ 80 |
| N#CCNC(=O)CNC(=O)c1sc(C2=NOC(c3cc(Cl)c(F)c(Cl)c3)(C(F)(F)F)C2)c2c1CCCC2 (stereo not drawn) [Example 50, N-(2-(cyanomethyl-amino)-2-oxoethyl)-3-(5-(3,5-dichloro-4-fluorophenyl)-5-(trifluoromethyl)-4,5-dihydroisoxazol-3-yl)-4,5,6,7-tetrahydrobenzo [c]thiophene-1-carboxamide] | ≥ 80 |
| C#CCNC(=O)CNC(=O)c1sc(C2=NOC(c3cc(Cl)c(F)c(Cl)c3)(C(F)(F)F)C2)c2c1CCCC2 (stereo not drawn) [Example 51, 3-(5-(3,5-dichloro-4-fluorophenyl)-5-(trifluoromethyl)-4,5-dihydroisoxazol-3-yl)-N-(2-oxo-2-(prop-2-ynylamino)ethyl)-4,5,6,7-tetrahydro-benzo[c]thiophene-1-carboxamide] | ≥ 80 |
| O=C(CNC(=O)c1sc(C2=NOC(c3cc(Cl)c(Cl)c(Cl)c3)(C(F)(F)F)C2)c2c1CCC2)NCC(F)(F)F (stereo not drawn) [Example 52, N-(2-oxo-2-(2,2,2-trifluoroethylamino)ethyl)-3-(5-(3,4,5-trichlorophenyl)-5-(trifluoromethyl)-4,5-dihydroisoxazol-3-yl)-5,6-dihydro-4H-cyclopenta[c] thiophene-1-carboxamide] | ≥ 80 |
